Laboratory results published in the METLIN SMRT retention time set (Domingo-Almenara et al. 2019).

assay: gradient 5% acetonitrile 3 min, to 50% in 2 min, to 85% in 15 min, held 3 min, 100 µL/min; settings: column: Zorbax Extend-C18 2.1 x 50 mm; eluents: water / acetonitrile, 0.1% formic acid
How it was run: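 Standards, all pure, were combined into mixtures of ~100 molecules and run at 100 μL/min on a Zorbax Extend-C18 column (2.1 × 50 mm, 1.8 μm) with water and acetonitrile, each containing 0.1% formic acid. A coupled quadrupole time-of-flight mass spectrometer operated in positive and negative ionization mode. Retention time values come from computationally picked adduct peaks, each inspected manually.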

Structure (SMILES)	RP-LC retention time
COc1ccc(CN(Cc2cc(=O)n3ccccc3n2)CC(C)C)cc1OC	615 s
CCCN(CC1CCOC1)C(=O)c1cccc(Br)c1 (stereo not given)	852 s
Cc1ccc(NC(=O)N(C)CCc2noc(COc3ccccc3F)n2)cc1F	943 s
CCn1cc(CN2CCC(C(=O)NC(C)c3ccccc3)CC2)c2cc(Cl)ccc21 (stereo not given)	753 s
Cc1noc(C)c1CCNC(=O)Cn1c2ccccc2c2cnn(C)c(=O)c21	706 s
Cn1c(=O)c(-c2ccc(C(=O)NCc3ccc4c(c3)OCO4)cc2)nc2cccnc21	872 s
Cc1nc(-c2ccc(-c3noc(CNS(=O)(=O)c4ccccc4)n3)cc2)cs1	960 s
Cc1ccc(-c2ncc3c(=O)n(CC(=O)NC(C)C)c(=O)n(C)c3n2)cc1	854 s
CCOc1ccc(-n2cc(C(=O)OCC(=O)OC)c3ccccc3c2=O)cc1	1000 s
CCCCOc1ccc2c(=O)c3ccc(O)cc3oc2c1	928 s
Cc1c(S(=O)(=O)NCc2cccs2)c(C)n(C)c1-c1nnc(C2CCC2)o1	893 s
CC(C)CN1C(=O)c2cccn2CC1C(=O)NCCN1CCCC1 (stereo not given)	572 s
COc1ccc(-c2ccnn2-c2ccc(SCc3ccccc3C)nn2)cc1	1390 s
COc1ccc(-c2nc(CNC(=O)C3CCOC3)no2)cc1 (stereo not given)	677 s
COc1ccc(NC(=O)C2CCN(S(=O)(=O)c3cc4c(cc3C)NC(=O)CO4)CC2)cc1	754 s
Cc1cc(C)c2[nH]c3c(c(=O)c2c1)CN(CC(=O)NCc1ccc(F)cc1)CC3	620 s
COc1ccc(-c2noc(Cc3nc(-c4ccc(Br)cc4)cs3)n2)c(OC)c1	1180 s
Cc1nn2c(CNS(=O)(=O)Cc3cccc(F)c3)c(-c3ccccc3)nc2s1	935 s
COc1cccc2cc(C(=O)N(CCc3cccs3)Cc3cccnc3)oc12	671 s
COc1ccc(NC(=O)CSc2cc(NCc3ccccc3Cl)ncn2)c(OC)c1	933 s
Nc1ccc(Cl)cc1C(=O)c1ccccc1Cl	1140 s

Structure (SMILES)	RP-LC retention time
COc1ccc(OCc2nc(-c3cccc(-c4csc(C5CC5)n4)c3)no2)cc1	1300 s
CCc1nc(OCC(=O)NCc2ccccc2Cl)c2c(C)c(C)oc2n1	1020 s
Cc1ccc(-c2nc(Nc3ccc(C)c(Cl)c3)sc2CC(=O)O)cc1	1100 s
CCCc1cc(C2CCCN2C(=O)Nc2ccc(OC)c(OC)c2)no1 (stereo not given)	778 s
COc1ccc(OC)c2sc(NC(=O)CS(=O)(=O)c3ccc(Cl)cc3)nc12	854 s
CCCCS(=O)CC(CO)NC(=O)/C=C/c1c(C)[nH]c(=O)[nH]c1=O (stereo not given)	569 s
COc1ccc(-c2noc(C3CC(=O)N(c4ccc(C(C)C)cc4)C3)n2)cc1OC (stereo not given)	870 s
COc1cccc(-c2nc(Cc3nc(-c4ccccc4)oc3C)no2)c1	1100 s
CCCC(C)C(=O)NC1CCN(C2=NS(=O)(=O)C(c3ccc(C)c(C)c3)=C2C)CC1 (stereo not given)	927 s
COc1cccc(-c2cc(=O)n3c4ccccc4n(CC(=O)NCc4ccco4)c3n2)c1	864 s
CCc1ccc(-c2noc(Cn3c(=O)n(-c4ccc(C)cc4)c(=O)c4sccc43)n2)cc1	1160 s
O=C(NCc1cccc2ccccc12)NCC1CCN(C(=O)COc2ccccc2)CC1	770 s
CCN1CCN(CC(=O)NCc2ccccc2)C(=O)C1=O	570 s
COC(=O)c1c(-c2cccc(F)c2)noc1NCc1ccc(OC)cc1OC	548 s
CCCn1cnc2cc(CNC(=O)Cc3cccc(Cl)c3)ccc21	670 s
CC(NC(=O)c1ccco1)c1nc(-c2ccc(N3CCOCC3)cc2)no1 (stereo not given)	757 s
Cc1nnc2n1CCC(N(C)S(=O)(=O)c1ccccc1F)CC2 (stereo not given)	634 s
CCOC(=O)c1csc(NC(=O)Cn2cnc(C)cc2=O)n1	598 s
O=C(CSc1nc2ncccc2[nH]1)Nc1ccc(Br)cc1F	720 s
CN(C)c1cnc(-n2cc(NC(=O)c3ccc(C#N)cc3)cn2)nc1	716 s
CC(=O)c1sc(Nc2nc3cc4c(cc3s2)OCO4)nc1C	778 s

Structure (SMILES)	RP-LC retention time
CCOC(=O)c1cc(S(=O)(=O)N2CCCC2C(=O)Nc2cccc(F)c2)cn1C (stereo not given)	938 s
CSc1ccc(NC(=O)CCNc2cnc3cnccn23)cc1	619 s
COC(=O)c1ccc(NC(=O)N(Cc2cc(=O)[nH]c3ccccc23)CC(C)C)cc1	830 s
CCC(=O)Nc1ccc(C2(C(=O)NCC(C)C)CCCCC2)cc1	859 s
CCSc1nc2ccc(NS(=O)(=O)c3cc(C)cc(C)c3)cc2s1	1120 s
CCCn1ccc2sc(C)c(C(=O)NCc3cc(OC)ccc3OC)c2c1=O	889 s
Cc1ccc2c(c1)C(O)(CC(=O)c1cccc(Br)c1)C(=O)N2 (stereo not given)	789 s
Cc1nn(CC(=O)NCCCN2CCCC2=O)c(=O)c2nc(-c3ccccc3)sc12	668 s
Cc1ccccc1Nc1c(-c2ccccc2F)nc2ccccn12	707 s
CC(C)Cn1ccc2c(cc(C(=O)Nc3ccc(C(C)C)cc3)n2C)c1=O	1030 s
COc1ccc(-n2c(=O)c(C(=O)Nc3ccccc3)c(O)c3cccnc32)cc1	1200 s
COc1ccc(-c2cc3n(n2)C(NC2CC2)CNC3=O)cc1 (stereo not given)	683 s
CC(C)Cn1cc(S(=O)(=O)Nc2cccc(Cl)c2)c2cccnc21	912 s
CCOc1ccc(-c2csc(Cc3nc(-c4ccc5c(c4)OCO5)no3)n2)cc1	1200 s
COc1ccc(-c2nc(C3CC(=O)N(c4ccc(C)cc4)C3)no2)c(OC)n1 (stereo not given)	1040 s
C=CCNC(=O)c1ccc2nc(C)c(C)nc2c1	626 s
CCc1nc(N)n(CC(=O)Nc2cccc(C)c2)c(=O)c1C	610 s
CCOc1ccccc1-c1noc(Cn2c(=O)n(-c3cccc(C)c3)c(=O)c3sccc32)n1	1010 s
COc1ccc2c(c1)C1(CCN(S(=O)(=O)c3ccc(F)cc3F)C1)C(=O)N2C (stereo not given)	927 s
COc1cccc(Oc2nccn3c(=O)n(CC(=O)Nc4cccc(C(F)(F)F)c4)nc23)c1	919 s

More lines, now with the values ahead:

RP-LC retention time	Structure (SMILES)
821 s	CCN1c2cc(C(=O)Nc3ccc4c(c3)OCCO4)ccc2C(=O)N2CCCCC21 (stereo not given)
707 s	COc1ccc(C2(C(=O)N3CCC4(CC3)CC(C)(O)CCO4)CC2)cc1 (stereo not given)
671 s	COc1ccccc1N1CCN(c2nc3ccccc3cc2-c2noc(C)n2)CC1
945 s	O=C(c1ccccc1F)N1CCC(COCc2ccccc2)CC1
771 s	O=C(Nc1ccc2c(c1)N(C(=O)C1CCCO1)CC2)c1ccc(F)c(F)c1 (stereo not given)
1120 s	CCOc1nc2ccccc2nc1N1CCCC(C(=O)Nc2ccccc2CC)C1 (stereo not given)
608 s	Cc1cc(N2CCN(C(=O)c3ccccc3F)CC2)nc(N2CCOCC2)n1
520 s	O=C(NC1CCS(=O)(=O)C1)c1ccc(N2CCCC2)nn1 (stereo not given)
699 s	CC(C)Cn1c(-c2cccc(C(=O)NCC3CCCO3)c2)nc2cccnc21 (stereo not given)
810 s	CCC(CC)NC(=O)C1CCN(c2nc3ccc(-c4cncnc4)nc3s2)CC1
956 s	CN(C(=O)CSc1cc(NCc2ccc(Cl)cc2)ncn1)C1CCCCC1
876 s	CCOC(=O)c1cccc(NC(=O)C2CCCN(c3ncnc4c3nc3n4CCCCC3)C2)c1 (stereo not given)
975 s	Cc1ccccc1CNC(=O)CN1C(=O)CCCc2cc(S(=O)(=O)N3CCC(C)CC3)ccc21
1290 s	Cc1ccc(Sc2nccnc2N2CCC(C(=O)N3CCN(c4ccc(C)cc4)CC3)CC2)cc1
580 s	O=C(c1ccc2ncnc(N3CCCC3)c2c1)N1CCCC1
735 s	O=C(Nc1cccc(Cl)c1)Nc1cnn(-c2ncncc2N2CCOCC2)c1
620 s	Cc1cc(OCC(=O)NCc2ccccc2Cl)nc(N2CCCC2)n1
650 s	CCOc1ccc(-n2c(CN3CCN(C(=O)NC(C)CC)CC3)nc3cccnc32)cc1 (stereo not given)
639 s	O=C(NCc1ccccc1)N1CCN(c2ccc(-c3cccs3)nn2)CC1
576 s	COc1cc(OC)cc(C(=O)N2CCN(c3cc(C(C)C)n4cnnc4n3)CC2)c1
650 s	O=C(NCc1ccc2c(c1)OCO2)c1cn2c(n1)CSCC2
587 s	CCC(C)NC(=O)N1CCN(Cc2nc3cc(C(=O)N(C)C)ccc3o2)CC1 (stereo not given)
680 s	COc1ccc(OC)c(CNC(=O)C2CCN(c3ccc4nncn4n3)CC2)c1
1020 s	COc1ccc(-c2ncc3c(n2)CCN(C(=O)Nc2ccc(F)c(Cl)c2)C3)cc1
960 s	Cc1ccccc1Oc1nccnc1N1CCCC(C(=O)NCc2ccc(Br)cc2)C1 (stereo not given)
989 s	Cc1ccc(-c2noc(C3CCCN3C(=O)C3CC(=O)N(c4ccc(C)cc4)C3)n2)cc1 (stereo not given)
784 s	O=C(c1ccc(N2CCN(c3ncccn3)CC2)nn1)N1CCc2ccccc21
674 s	CC(C)c1c(C2CCN(C(=O)c3ccoc3)CC2)noc1N
